In patent publication US11857544B2, “Composition or method including (t)ew-7197 for treating or preventing corneal endothelial diseases” (THE DOSHISHA, priority 2017, dated 2024):

Legend:
[1] = test system: fibronectin; assay: Western blot for fibronectin in TGF-β-stimulated iFECD; format: cell-based, human; settings: any of the concentrations 0.1, 1, 10 μM
Description: (§1) […] were seeded on a 12-well plate at a ratio of 8×10^4 cells per well, and cultured at 37° C. (5% CO2) for 24 hours. DMEM+10% FBS+1% P/S was used as the medium. After 24 hours, the medium was removed. EW-7197 (Selleck Chemicals, 57530) was added so that the final concentration would be 0.1, 1, or 10 μM, and SB431542 (WAKO, 192-16541) was added so that the final concentration would be 10 μM, and the medium was cultured for 24 hours. DMEM+2% FBS+1% P/S was used as the medium. After 24 hours, the medium was removed and cultured […] so that the final concentration of 10 ng/ml of Transforming Growth Factor-132 Human recombinant (WAKO, 200-19911) and […] would be 0.1, 1, and 10 μM, and that of SB431542 would be 10 μM. DMEM+2% FBS+1% P/S was used as the medium. After 24 hours, the cell morphology and apoptosis were observed under a phase contrast microscope. To retrieve floating and dead cells, the medium was retrieved on ice, cells were washed twice with 1×PBS(-) and the solution thereof was also retrieved. The solution was centrifuged for 5 min at 4° C. and 800 g and the supernatant was discarded to obtain a precipitate. […] The detected band intensities were analyzed with Lumino Image Analyzer LAS-4000 mini (Fuji Film) and ImageQuantTM software (GE Healthcare).

[2] = test system: activated form of cleaved caspase 3; assay: Western blot for cleaved caspase 3 in TGF-β-stimulated iFECD; format: cell-based, human; settings: 0.1, 1, 10 μM
Description: as §1

[3] = test system: Col8a2 knock-in mice; assay: Corneal endothelial cell density after eye drops in Col8a2 knock-in mice (Example 5, 8 weeks); format: in vivo; settings: for Amount of change in the corneal endothelial cell density (ΔECD): 0.02% eye drop 4 times a day
Description: This Example evaluated the efficacy of an EW-7197 eye drop on Fuchs' endothelial corneal dystrophy using a Fuchs' endothelial corneal dystrophy animal model, Col8a2 knock-in mice. Col8a2 knock-in mice are established animal models of Fuchs' endothelial corneal dystrophy (reference: Jun et al., Hum Mol Genet. 2012 Jan. 15; 21(2): 384-93). 5 μL of 0.02% (about 0.5 mM) EW-7197 eye drop or a base agent (7% DMSO containing PBS) was administered as an eye drop to both eyes of 4-month-old alpha 2 collagen 8 gene (Col8a2) knock-in mice 4 times a day for 8 weeks. The corneal endothelial cell density was measured using a specular microscope KS3M (Konan Medical, Inc.) at before eye drops, and 2, 4, 6, and 8 weeks after eye drops. Mice were euthanized by intraperitoneally administering an excessive amount (200 mg/kg body weight or greater) of anesthetic injection Somnopentyl (Kyoritsu Seiyaku Corporation) 8 weeks after injection. After confirming cardiac arrest, both eye balls were harvested. The harvested eye balls were incised to prepare a corneal fragment. Immunostaining of type I collagen and fibronectin was performed as follows. Image-Pro (Nippon Roper K.K.) was used to analyze the area of type I collagen and fibronectin expression.

[4] = test system: fibronectin; assay: Area of fibronectin expression by immunostaining, Col8a2 knock-in mice (Example 6); format: in vivo
Description: 5 μL of 0.02% (about 0.5 mM) EW-7197 eye drop, 0.1% (about 2.5 mM) EW-7197 eye drop, or a base agent (DMSO containing phosphate buffer) was administered as an eye drop to both eyes of 4-month-old alpha 2 collagen 8 gene (Col8a2) knock-in mice 4 times a day for 12 weeks. A surfactant was added to the base agent as needed. Those skilled in the art can use an appropriate and suitable surfactant (Kenji Motose (1984). “Tenganzai” [Eye drops] Nanzando; International Pharmaceutical Excipients Council Japan (2016). “Iyakuhin Tenkabutsu Jiten” [Pharmaceutical Excipient Encyclopedia] Yakuji Nippo, Limited). The corneal endothelial cell density was measured using a specular microscope KS3M (Konan Medical, Inc.) at before eye drops, and 3, 6, 9, and 12 weeks after eye drops. Mice were euthanized by intraperitoneally administering an excessive amount (200 mg/kg body weight or greater) of anesthetic injection Somnopentyl (Kyoritsu Seiyaku Corporation) 12 weeks after injection. After confirming cardiac arrest, both eye balls were harvested. The harvested eye balls were incised to prepare a corneal fragment. Immunostaining of fibronectin was performed. The immunostaining method was the following. Image-Pro (Nippon Roper K.K.) was used to analyze the area of fibronectin expression.
After immobilizing a mouse corneal fragment for 10 minutes at room temperature in 4% paraformaldehyde, 0.5% TritonX-100 was added and allowed to permeate for 5 minutes. 1% bovine serum albumin (BSA) was added and the fragment was incubated for 1 hour at room temperature. The corneal fragment was then immersed in a primary antibody solution and reacted overnight at 4° C. 1:250 diluent of fibronectin polyclonal antibody (abcam) was used as the primary antibody. Next, the corneal fragment was immersed in a mixture of a secondary antibody solution and DAPI solution (Dojindo Laboratories) and reacted for 1 hour at room temperature away from light. 1:2000 diluent of Alexa Fluor® 488-labeled goat anti-rabbit IgG (Life Technologies) was used as the secondary antibody. 1:1000 diluent of DAPI solution was used. […]

## Cc1cccc(-c2[nH]c(CNc3ccccc3F)nc2-c2ccc3ncnn3c2)n1 [EW-7197, N-((4-([1,2,4]triazolo[1,5-a]pyridin-6-yl)-5-(6-methylpyridin-2-yl)-1H-imidazol-2-yl)methyl)-2-fluoroaniline]
[1]
  expression of fibronectin (about 240 kDa): suppressed to the same degree as the control group without stimulation with TGF-β or 10 μM of SB431542
[2]
  activated form of cleaved caspase 3 (about 17 kDa): suppressed to the same degree as the control group without stimulation with TGF-β or 10 μM of SB431542
[3]; 0.02% eye drop
  decrease in the corneal endothelial cell density compared to the base agent group: suppressed significantly
[3]; week 0 (before eye drop)
  Amount of change in the corneal endothelial cell density (ΔECD): 0 cells/mm^2
[3]; week 4
  Amount of change in the corneal endothelial cell density (ΔECD): −121.4 cells/mm^2
[3]; week 8
  Amount of change in the corneal endothelial cell density (ΔECD): −284.5 cells/mm^2
[4]; 0.004% (0.1 mM) eye drop
  fibronectin expression: tendency of suppressing fibronectin expression
[4]; 0.02% eye drop, 12 weeks
  fibronectin expression: clear suppression of fibronectin expression
[4]; 0.1% eye drop, 12 weeks
  fibronectin expression: clear suppression of fibronectin expression
